From the NIST ThermoML archive (doi:10.1021/acs.jced.8b00132)
Values joined by “and” are separate entries in the source; they are usually repeats but may differ in a detail not shown here. Equal entries are not always repeated.

O=C(C(F)(F)C(F)(F)F)C(F)(C(F)(F)F)C(F)(F)F [dodecafluoro-2-methylpentan-3-one]
Details | thermal conductivity
272.59 K, 5172 kPa, Liquid, transient hot wire | 0.06413 W/m/K
272.59 K, 11144 kPa, Liquid, transient hot wire | 0.06607 W/m/K
272.63 K, 49567 kPa, Liquid, transient hot wire | 0.07698 W/m/K
272.63 K, 49576 kPa, Liquid, transient hot wire | 0.07734 W/m/K
272.66 K, 412 kPa, Liquid, transient hot wire | 0.06211 W/m/K
272.66 K, 419 kPa, Liquid, transient hot wire | 0.06231 W/m/K
272.66 K, 59545 kPa, Liquid, transient hot wire | 0.08002 W/m/K
272.67 K, 59542 kPa, Liquid, transient hot wire | 0.0797 W/m/K
272.71 K, 68218 kPa, Liquid, transient hot wire | 0.08167 W/m/K
272.71 K, 68236 kPa, Liquid, transient hot wire | 0.08151 W/m/K
273.05 K, 32241 kPa, Liquid, transient hot wire | 0.07208 W/m/K
273.05 K, 32245 kPa, Liquid, transient hot wire | 0.0724 W/m/K
273.05 K, 40384 kPa, Liquid, transient hot wire | 0.07454 W/m/K
273.05 K, 40385 kPa, Liquid, transient hot wire | 0.07459 W/m/K
273.05 K, 46114 kPa, Liquid, transient hot wire | 0.07568 W/m/K
273.06 K, 24365 kPa, Liquid, transient hot wire | 0.07006 W/m/K
273.06 K, 24371 kPa, Liquid, transient hot wire | 0.0701 W/m/K
273.07 K, 5155 kPa, Liquid, transient hot wire | 0.06386 W/m/K
273.07 K, 46114 kPa, Liquid, transient hot wire | 0.07563 W/m/K
273.08 K, 5150 kPa, Liquid, transient hot wire | 0.06384 W/m/K
273.1 K, 49569 kPa, Liquid, transient hot wire | 0.07538 W/m/K
273.1 K, 49574 kPa, Liquid, transient hot wire | 0.07648 W/m/K
273.11 K, 59541 kPa, Liquid, transient hot wire | 0.07959 W/m/K
273.12 K, 59533 kPa, Liquid, transient hot wire | 0.07966 W/m/K
273.14 K, 68200 kPa, Liquid, transient hot wire | 0.0807 W/m/K
273.15 K, 404 kPa, Liquid, transient hot wire | 0.06203 W/m/K
273.15 K, 68218 kPa, Liquid, transient hot wire | 0.08063 W/m/K
273.16 K, 411 kPa, Liquid, transient hot wire | 0.06212 W/m/K
273.17 K, 17550 kPa, Liquid, transient hot wire | 0.06792 W/m/K
273.17 K, 17567 kPa, Liquid, transient hot wire | 0.06791 W/m/K
273.18 K, 11149 kPa, Liquid, transient hot wire | 0.066 W/m/K
273.18 K, 11163 kPa, Liquid, transient hot wire | 0.06608 W/m/K
273.61 K, 5151 kPa, Liquid, transient hot wire | 0.06408 W/m/K
273.61 K, 5162 kPa, Liquid, transient hot wire | 0.06401 W/m/K
273.61 K, 59517 kPa, Liquid, transient hot wire | 0.0783 W/m/K
273.62 K, 49564 kPa, Liquid, transient hot wire | 0.07642 W/m/K
273.62 K, 49566 kPa, Liquid, transient hot wire | 0.07674 W/m/K
273.62 K, 59531 kPa, Liquid, transient hot wire | 0.07779 W/m/K
273.65 K, 40387 kPa, Liquid, transient hot wire | 0.07442 W/m/K
273.65 K, 40395 kPa, Liquid, transient hot wire | 0.07429 W/m/K
273.65 K, 46116 kPa, Liquid, transient hot wire | 0.0758 W/m/K
273.65 K, 68183 kPa, Liquid, transient hot wire | 0.08044 W/m/K
273.65 K, 68193 kPa, Liquid, transient hot wire | 0.08038 W/m/K
273.66 K, 46113 kPa, Liquid, transient hot wire | 0.07572 W/m/K
273.67 K, 32245 kPa, Liquid, transient hot wire | 0.07209 W/m/K
273.67 K, 32247 kPa, Liquid, transient hot wire | 0.07216 W/m/K
273.7 K, 424 kPa, Liquid, transient hot wire | 0.0621 W/m/K
273.7 K, 24366 kPa, Liquid, transient hot wire | 0.07016 W/m/K
273.7 K, 24370 kPa, Liquid, transient hot wire | 0.07021 W/m/K
273.71 K, 432 kPa, Liquid, transient hot wire | 0.06209 W/m/K
273.81 K, 17553 kPa, Liquid, transient hot wire | 0.06799 W/m/K
273.82 K, 17545 kPa, Liquid, transient hot wire | 0.06795 W/m/K
273.85 K, 11147 kPa, Liquid, transient hot wire | 0.06585 W/m/K
273.86 K, 11155 kPa, Liquid, transient hot wire | 0.06592 W/m/K
274.19 K, 59501 kPa, Liquid, transient hot wire | 0.07896 W/m/K
274.2 K, 59504 kPa, Liquid, transient hot wire | 0.07856 W/m/K
274.21 K, 49565 kPa, Liquid, transient hot wire | 0.07644 W/m/K
274.21 K, 49570 kPa, Liquid, transient hot wire | 0.07662 W/m/K
274.22 K, 68163 kPa, Liquid, transient hot wire | 0.08055 W/m/K
274.22 K, 68173 kPa, Liquid, transient hot wire | 0.08038 W/m/K
274.29 K, 46110 kPa, Liquid, transient hot wire | 0.07571 W/m/K
274.3 K, 46107 kPa, Liquid, transient hot wire | 0.07575 W/m/K
274.31 K, 40378 kPa, Liquid, transient hot wire | 0.07418 W/m/K
274.31 K, 40391 kPa, Liquid, transient hot wire | 0.07426 W/m/K
274.35 K, 32242 kPa, Liquid, transient hot wire | 0.0723 W/m/K
274.35 K, 32249 kPa, Liquid, transient hot wire | 0.0721 W/m/K
274.39 K, 24361 kPa, Liquid, transient hot wire | 0.07 W/m/K
274.4 K, 24354 kPa, Liquid, transient hot wire | 0.06999 W/m/K
274.53 K, 17544 kPa, Liquid, transient hot wire | 0.068 W/m/K
274.54 K, 17533 kPa, Liquid, transient hot wire | 0.06799 W/m/K
274.59 K, 11155 kPa, Liquid, transient hot wire | 0.06582 W/m/K
274.6 K, 11134 kPa, Liquid, transient hot wire | 0.06585 W/m/K
274.82 K, 59491 kPa, Liquid, transient hot wire | 0.07869 W/m/K
274.82 K, 59496 kPa, Liquid, transient hot wire | 0.07855 W/m/K
274.83 K, 68150 kPa, Liquid, transient hot wire | 0.0803 W/m/K
274.83 K, 68153 kPa, Liquid, transient hot wire | 0.08033 W/m/K
274.86 K, 49566 kPa, Liquid, transient hot wire | 0.0765 W/m/K
274.86 K, 49571 kPa, Liquid, transient hot wire | 0.07653 W/m/K
300.59 K, 40 kPa, Gas, hot wire | 0.01173 W/m/K
300.6 K, 35 kPa, Gas, hot wire | 0.01177 W/m/K
300.6 K, 40 kPa, Gas, hot wire | 0.01173 W/m/K
300.61 K, 35 kPa, Gas, hot wire | 0.01163 W/m/K
300.62 K, 27 kPa, Gas, hot wire | 0.01161 W/m/K and 0.01166 W/m/K
300.8 K, 40 kPa, Gas, hot wire | 0.01173 W/m/K and 0.01174 W/m/K
